Reference: patent US12564622B2, “Preventing cytokine release syndrome” (priority 2017, dated 2026)
Where “and” joins values, the source holds several entries; their conditions need not be identical. Equal entries are not always repeated.

How the values were obtained:
[1] = tested on: C. novyi-NT therapy-induced toxicity in mice bearing large subcutaneous CT26 tumors; test: C. novyi-NT therapy of large subcutaneous CT26 tumors (therapy-induced toxicity); format: in vivo, mouse (BALB/c); details: CT26 tumor-bearing mice injected with parental C. novyi-NT spores, with the indicated agent
Method: ANP concentrations in the supernatant of ANP-C. novyi-NT culture and in mouse plasma were measured by an Elisa kit from Ray Biotech (EIAR-ANP-1) that recognizes both human and mouse ANP. ANP in the supernatant of ANP-C. novyi-NT culture were shown biological activities as described elsewhere (Lofton et al., 1990 Biochem. Biophys. Res. Comm., 172:793-9). Briefly, bacterial supernatants were applied to cultured bovine aortic endothelial cells (BAOEC, Cell Applications Inc.) for 3 minutes. cGMP concentrations were then measured in BAOEC lysates by the Direct cGMP Elisa Kit from Enzo following the manufacture's instruction.
The colon cancer cell line CT26 was injected subcutaneously into the right flank of six to eight week old female Balb/C mice as described elsewhere (Qiao et al., 2011 Oncotarget, 2:59-68). Tumor sizes were measured with a caliper and calculated as ½*L*W*H as described elsewhere (Tomayko et al., 1989 Can. Chemother. Pharmacol., 24:148-54). When tumors reached 600-900 mm^3 after about two weeks, 12×10^6 spores of C. novyi-NT or ANP-C. novyi-NT at 3×10^6/μl were injected intratumorally into 4 central parts of the tumor with a 32 G Hamilton syringe needle. The bacteria typical germinated in the tumors within 24 hours, turning them necrotic. Hydration of the mice was supported by daily subcutaneous injections of […] saline. Human ANP (Sigma) was dissolved in saline, loaded in mini-osmotic pumps (ALZET) with a release rate of 12 μg/day and implanted subcutaneously in the back of mice 12 hours before the spore injection. Pumps loaded with saline served as controls. Metyrosine was dissolved in PBS and injected IP at 60 mg/kg/day for three days before the C. novyi injection to deplete catecholamines in storage. Two hours after the spore injection, 60 mg/kg of metyrosine was injected intraperitoneally (IP). For each of the next three days, IP injections of metyrosine at 30 mg/kg were administered. Control groups were injected with PBS at the same time points.
Blood samples were collected into tubes containing 5 mM EDTA and 4 mM sodium metabisulfite after puncturing the facial vein or (terminally) by cardiac puncture. Subsequently, the samples were centrifuged and the plasmas were stored at −80° C. prior to analysis. Catecholamines (dopamine, norepinephrine and epinephrine) were measured using the 3-CAT Research ELISA kit from Labor Diagnostika Nord GmbH/Rocky Mountain Diagnostics. Cytokines were measured using Luminex assays based on Millipore Mouse and Human Cytokine/Chemokine panels.
ANP concentrations in the supernatant of ANP-C. novyi-642 NT culture and in mouse plasma were measured with an Elisa kit from Ray Biotech (EIAR-ANP-1) that recognizes both human and mouse ANP. […] Briefly, bacterial supernatants were applied to cultured bovine aortic endothelial cells (BAOEC, Cell Applications Inc.) for 3 minutes. cGMP concentrations were then measured in BAOEC lysates by the Direct cGMP Elisa Kit from Enzo following the manufacture's instruction.
The colon cancer cell line CT26 was injected subcutaneously into the right flank of six to eight weeks old female Balb/C mice as described elsewhere (see, e.g., Qiao et al. 2011 Oncotarget 2:59-68). Tumor sizes were measured with a caliper and calculated as ½*L*W*H as described elsewhere (see, e.g., Tomayko et al. 1989 Cancer Chemother Pharmacol 24:148-154). When tumors reached 600-900 mm^3 after about two weeks, 12×10^6 spores of C. novyi-NT or ANP-C. novyi-NT at 3×10^6/μl were injected intratumorally into 4 central parts of the tumor with a 32 G Hamilton syringe needle. The bacteria typical germinated in the tumors within 24 hours, turning them necrotic. Hydration of the mice was supported by daily subcutaneous injections of 500 μl saline. Human ANP (Sigma) was dissolved in saline, loaded in mini-osmotic pumps (ALZET) with a release rate of 12 μg/day and implanted subcutaneously in the back of mice 12 hours before the spore injection. Pumps loaded with saline served as controls. […]

[2] = tested on: co-culture of hCART19 and Raji cells; test: In vitro co-culture of Raji and hCART19 cells; format: cell-based, human; details: co-culture stimulated with epinephrine 15 ng/ml; CHX 10 μg/ml
Description: Human CD19scFv-CD28-4-1BB-CD3ζ CAR-T cells (PM-CAR1003) were purchased from Promab Biotechnologies and maintained less than 7 days in AIM-V medium (GIBCO) supplemented with 300 IU/ml of hIL2 (Peprotech), 5% FBS and antibiotics (Car-T medium).

[3] = tested on: LPS-injected BALB/c mice; format: in vivo, mouse (BALB/c); details: for mortality: LPS-treated mice, adrenoceptor blockers (α1, α2, β1, β2); for disease course (mortality, catecholamines, IL-6, TNF-α, MIP-2, KC) versus LPS only: catecholamine by subcutaneous osmotic pump plus sublethal dose of LPS
Method: LPS from Escherichia coli 0111:B4 was formulated as a 10 mg/ml solution in water and stored in −80° C. LPS was injected intraperitoneally at a dose of 3.5 mg/kg. […] Human ANP (Sigma) was dissolved in saline, loaded in mini-osmotic pumps (ALZET) with a release rate of 12 μg/day and implanted subcutaneously in the back of mice 12 hours before the LPS injection. Mice implanted with pumps loaded with saline served as controls. […] […] The control groups were injected with PBS. […] Hydration of mice was supported by daily subcutaneous injection of 0.5 ml saline.
LPS from Escherichia coli 0111:B4 was formulated as a 10 mg/ml solution in water and stored in −80° C. In Balb/C mice, LPS was injected intraperitoneally at a lethal dose of 3.5 mg/kg. […] In experiments with catecholamine pumps, a sublethal dose with 15-35% death rate was optimized in Balb/C mice. In TH+/+ and TH^ΔLysM mice with C57BL/6 background, a lethal dose was optimized at 5 mg/kg. Human ANP (Sigma) was dissolved in saline, loaded in mini-osmotic pumps (ALZET) with a release rate of 12 μg/day and implanted subcutaneously in the back of mice 12 hours before the LPS injection. Mice implanted with pumps loaded with saline served as controls. Metyrosine was freshly dissolved in PBS and injected IP at the indicated doses for three days prior to the LPS treatment. One hour before the LPS injection, metyrosine was injected into the lower abdomen contralateral to the side of LPS injection. The control groups were injected with PBS. For the following 3 days, metyrosine was injected IP at reduced indicated doses. Hydration of mice was supported by daily subcutaneous injection of 0.5 ml saline.

[4] = incubation in media for 24 hours at 37° C.
[5] = tested on: polymicrobial peritoneal sepsis induced by CLP; test: Cecal ligation and puncture (CLP) sepsis; format: in vivo, mouse (C57BL/6); details: antibiotic alone, from 20 hours after CLP
Method: (§1) Cecal ligation and puncture (CLP) was performed as described elsewhere (Rittirsch et al., 2009 Nature Protocols, 4:31-6). Briefly, six-to-eight week old female C57BL/6 mice were anesthetized and following abdominal incision, the cecum was ligated at about 14 the distance from the luminal entry to its tip. The ligated cecum was punctured through and through with a 22 G needle at ½ and ¾ the distance from the luminal entry to its tip. A small amount of the cecal content was gently pushed out of the four openings into the peritoneum. Subsequently, the abdominal muscles were sutured and the skin was closed with two staples. Five hundred microliters of saline were immediately injected subcutaneously to the mice. For the groups treated with antibiotics, imipenem (Sigma) was injected subcutaneously at 25 mg/kg starting from 20 hours after CLP, with a schedule of twice a day on day one and once a day thereafter for 10 days. Human ANP (Sigma) was dissolved in saline, loaded in mini-osmotic pumps (ALZET) with a release rate of 12 μg/day and implanted subcutaneously in the back of mice 12 hours before the CLP, with pumps loaded with saline serving as controls. Metyrosine was freshly dissolved in PBS and injected IP at 60 mg/kg/day for three days before the CLP. Twenty minutes before the CLP, metyrosine was injected at 60 mg/kg IP into the right side. The control groups were injected with PBS. For the following 4 days, metyrosine was injected at 30 mg/kg/day IP into the right side. Hydration of mice was supported by daily subcutaneous injection of 0.5 ml saline.
as §1, with “CLP” for “Cecal ligation and puncture (CLP)”, “(see, e.g., Rittirsch” for “(Rittirsch”, “2008 Rev Immunol 8:776-787).” for “2009 Nature Protocols, 4:31-6).”, “6-8 weeks” for “six-to-eight week”, “¼” for “14”, “days.” for “days. Human ANP (Sigma) was dissolved in saline, loaded in mini-osmotic pumps (ALZET) with a release rate of 12 μg/day and implanted subcutaneously in the back of mice 12 hours before the CLP, with pumps loaded with saline serving as controls.”

## Cc1ccc2nc(NCCN)c3ncc(C)n3c2c1 [BMS-345541]
[1]
  effect on survival (words): no significant improvement in survival
[1]; listed as BMS345541
  effect on survival (words): did not improve survival

## C[C@@H]1C[C@@H]([C@H](O)CC2CC(=O)NC(=O)C2)C(=O)[C@@H](C)C1 [CHX, Cycloheximide]
[2]
  increase of catecholamines and cytokines (TNF-α, MIP-1α, IFN-γ, GM-CSF): greatly suppressed

## Cc1ccc(OCC(O)C(C)NC(C)C)c2c1CCC2 (stereo not shown) [ICI 118551]
[3]
  mortality: did not reduce mortality

## COC1(C2=NCCN2)COc2ccccc2O1 (stereo not shown) [RX 821002]
[3]
  mortality: did not reduce mortality

## NCCc1ccc(O)c(O)c1 [dopamine]
[3]
  disease course (mortality, catecholamines, IL-6, TNF-α, MIP-2, KC) versus LPS only: absent

## CNC[C@H](O)c1ccc(O)c(O)c1 [epinephrine, (−)-epinephrine]
[3]
  disease course (mortality, catecholamines, IL-6, TNF-α, MIP-2, KC) versus LPS only: earlier onset and exacerbated disease course
[3]; mouse, in vivo
  animal survival: no effect on animal survival
  cytokine release: moderately stimulate cytokine release
[4]
  stability in media: all detectable epinephrine was degraded

## C[C@@H](O)[C@H]1C(=O)N2C(C(=O)O)=C(SCCN=CN)C[C@H]12 [imipenem]
[5]
  mice that died after CLP: 88% and > 90%

## COCCc1ccc(OCC(O)CNC(C)C)cc1 (stereo not shown) [metoprolol]
[3]
  mortality: did not reduce mortality

## Cc1ncc([N+](=O)[O-])n1CCO [metronidazole]
[1]
  effect on survival (words): did not protect animals from sepsis

## NC[C@H](O)c1ccc(O)c(O)c1 [norepinephrine]
[3]
  disease course (mortality, catecholamines, IL-6, TNF-α, MIP-2, KC) versus LPS only: less pronounced

## COc1cc2nc(N3CCN(C(=O)c4ccco4)CC3)nc(N)c2cc1OC [prazosin]
[3]; 24 hours after LPS, α1 blockade
  production of catecholamines and cytokines: suppressed the production of catecholamines and cytokines
[3]
  mortality: substantially reduced mortality
